Results: article PMC5515844, “A new Prenylated Flavonoid induces G0/G1 arrest and apoptosis through p38/JNK MAPK pathways in Human Hepatocellular Carcinoma cells” (Scientific Reports, 2017)

Key:
Hep3B = experiment: MTT cytotoxicity assay; assay type: cell-based, human; conditions: Homo sapiens, 48 h, mean ± SD
Procedure: (§1) HepG2 and Hep3B (human hepatoma cells), Bcap37 and MCF-7 (human breast cancer cells), TE-1 (human esophageal cancer cells), A549 (human lung carcinoma cells), U251 and U87 (human glioma cells), were cultured in Dulbecco’s modified Eagle’s medium (DMEM) supplemented with 10% fetal bovine serum (FBS) and 1% penicillin/streptomycin (10000 U/mL penicillin, 10000 μg/ml streptomycin). SH-SY5Y (human neuroblastoma cells), LO2 (human normal liver cell) were grown in RPMI 1640 containing 10% FBS and 100 µg/ml penicillin, 100 µg/ml streptomycin. HepG2, Hep3B, MCF-7, TE-1, A549, U87, U251 and SHSY5Y cells were obtained from the American Type Culture Collection (Manassas, VA, USA). Bcap37 and LO2 cells were purchased from the Cell Bank of Chinese Academy of Sciences (Shanghai, China). All cells were incubated in a humidified atmosphere containing 5% CO2 at 37 °C.
(§2) Cells seeded in 96-well plates with 5 × 10^3 cells/well were adhered overnight and incubated with vehicle control (DMSO) or diverse concentrations of compounds for 48 h. After treatment, 20 μL of MTT (5 mg/mL) was added to each well and incubated for another 4 h at 37 °C. Then, 150 μL of DMSO/well was appended after removed the supernatant to dissolve the formed purple formazan crystals and the color absorbance was measured at 490 nm using a microplate reader (Molecular Devices, Thermo, CA, USA). The inhibition rate (%) was calculated as (A490(control) − A490(drug groups))/(A490(control) − A490(blank)) × 100 and the value of IC50 (the concentration that caused 50% inhibition of cell viability) was determined using SPSS 20.0. This experiment was measured in triplicate, independently.

A549 = experiment: MTT cytotoxicity assay; assay type: cell-based; conditions: Homo sapiens, 48 h, mean ± SD
Procedure: as §1, §2

Bcap37 = experiment: MTT cytotoxicity assay; assay type: cell-based; conditions: Homo sapiens, 48 h, mean ± SD
Procedure: as §1, §2

MCF-7 = experiment: MTT cytotoxicity assay; assay type: cell-based; conditions: Homo sapiens, MCF7, 48 h, mean ± SD
Procedure: as §1, §2

SH-SY5Y = experiment: MTT cytotoxicity assay; assay type: cell-based; conditions: Homo sapiens, 48 h, mean ± SD
Procedure: as §1, §2

TE-1 = experiment: MTT cytotoxicity assay; assay type: cell-based; conditions: Homo sapiens, 48 h, mean ± SD
Procedure: as §1, §2

U251 = experiment: MTT cytotoxicity assay; assay type: cell-based; conditions: Homo sapiens, U-251, 48 h, mean ± SD
Procedure: as §1, §2

U87 = experiment: MTT cytotoxicity assay; assay type: cell-based; conditions: Homo sapiens, U-87 MG, 48 h, mean ± SD
Procedure: as §1, §2

LO2 = experiment: MTT cytotoxicity assay, normal hepatic cells; assay type: cell-based; conditions: mean ± SD
Procedure: as §1, §2

[1] = test system: cyclin D1, cyclin E1, CDK2, CDK4, cleaved-caspase 3, PARP, p38, JNK, ERK in Hep3B cells; experiment: Western blotting analysis; assay type: cell-based, human
Procedure: (§3) Cells that after treatment were harvested and lysed by radio-immunoprecipitation assay (RIPA) buffer containing protease inhibitor (PMSF, 1 mM) on ice for 30 min. Cells lysates were centrifuged at 12,000 g for 15 min at 4 °C and following the protein concentration in the supernatant was determined using a BCA protein assay kit (Thermo Scientific, Waltham, USA), then cell extracts were added SDS-PAGE sample loading buffer and denatured at 100 °C for 10 min. Equal amount of protein (30 μg) were separated on a 8–15% SDS-PAGE and transferred onto PVDF membranes (0.2 μm, Millipore) using an electroblotting apparatus (Bio-Rad). The membranes were blocked with 5% milk in PBS-T (PBS containing 0.1% Tween 20) for 2 h at room temperature and incubated with primary antibodies at 4 °C overnight. After washed three times with PBS-T, the membranes were incubated with horseradish peroxi-dase (HRP)-conjugated secondary antibody (1:5,000) at room temperature for 2 h, then washed again, and the immunoreactive bands were detected using ECL reagents (ThermoFisher, Waltham, MA).

[2] = test system: cyclin D1, cyclin E1, CDK2, CDK4, cleaved-caspase 3, PARP, p38, JNK, ERK in HepG2 cells; experiment: Western blotting analysis; assay type: cell-based, human
Procedure: as §3

Hep3B xenografts = experiment: In vivo antitumor activity, nude mouse xenograft model; parameters: species or system BALB/c nude mice; conditions: for inhibition rate of the tumor volume: vs vehicle group
Procedure: (§4) All of the animal studies and procedures were conducted in accordance with the approval and guidelines of the Shenyang Pharmaceutical University Institutional Animal Care and Use Committee (permission number: SCXK (Jing) 2014-0004). Male BALB/c nude mice at the age of six weeks were obtained from Beijing HFK Bioscience Co., Ltd (Beijing, China). Hep3B cells (1 × 10^5 cells) were implanted subcutaneously into the right backsides of each nude mouse. After 12 days, when the tumor size reached about 100 mm^3, the mice were randomly divided into three groups (n = 6) and intraperitoneally injected with vehicle control or daphnegiravone D (5 and 10 mg/kg body weight) every two days for two weeks. The body weight and tumor sizes were measured every day, and the tumor volume was determined by caliper measurements and calculated by the formula: 0.5236 × L × W ^2, where L is the long axis and W is the short axis of the tumor. The experiment was terminated when the tumors volume of the control group reached about 3000 mm^3. The mice were sacrificed, and the tumors, hearts, livers, spleens, lungs and kidneys were excised immediately to evaluate the antitumor activity and toxicity of daphnegiravone D.
Mouse major organs (heart, liver, spleen, lung, kidney) and tumors were isolated and fixed in 10% buffered formalin for 3 days and embedded in paraffin. The tissues were sectioned at a thickness of 4 μm, and the obtained organ sections were prepared orderly by dewaxing, staining in hematoxylin and eosin-phloxine solution, then dehydrated and mounted with neutral resin. Subsequently, the tumor paraffin sections were deparaffinized, rehydrated, and subjected to antigen retrieval. Immunostaining was performed by the streptavidin-peroxidase (S-P) method (Ultra-sensitive; MaiXin, Fuzhou, China). The primary antibody was mouse anti-Ki67 monoclonal antibody (Maixin Biotech, Fuzhou, China). The peroxidase reaction was developed with 3,3-diaminobenzidine (Maixin Biotech, Fuzhou, China). Finally, the sections tissue morphology were observed using an OLYMPUS microscope.

[3] = Gross evaluation and pathological study in xenograft nude mice; assay type: in vivo, BALB/c nude mice
Procedure: as §4
Mouse major organs (heart, liver, spleen, lung, kidney) and tumors were isolated and fixed in 10% buffered formalin for 3 days and embedded in paraffin. […]

[4] = 5 and 10 mg/kg i.p. every two days for two weeks

`COc1c(-c2ccc(O)c(CC=C(C)C)c2)oc2c(CC=C(C)C)c(O)cc(O)c2c1=O` [Compound 1, daphnegiravone D] gave an IC50 (Hep3B) of 1.63 ± 0.56 µM, an IC50 (A549) of 21.8 ± 1.34 µM and an IC50 (Bcap37) of 28 ± 1.94 µM. For the same compound, the IC50 (MCF-7) was 22.3 ± 2.18 µM, the IC50 (SH-SY5Y) was 39.1 ± 3.67 µM and the IC50 (TE-1) was 19.3 ± 2.3 µM. It also gave an IC50 (U251) of 33.4 ± 3.03 µM, an IC50 (U87) of 35.1 ± 3.97 µM and an IC50 (LO2; 48 h, normal human hepatic cells) of 45.1 ± 3.09 µM. For the same compound, the IC50 (LO2; Homo sapiens, L02, 48 h) was roughly 45 µM, the “expression of cyclin D1” value [1] was “not significantly changed” and the “phosphorylated status of ERK” value [1] was “no distinct change”. The “phosphorylation level of p38” value ([1]; 48 h) was “markedly increased”, the “levels of cleaved-caspase 3 and -PARP” value ([1]; 48 h, dose-dependent) was “increased” and the “level of phosphorylated JNK” value ([1]; dose-dependent) was “dramatically reduced”. For the same compound, the “levels of cyclin E1, CDK2 and CDK4” value ([1]; dose-dependent) was “decreased”, the “expression of cyclin D1” value ([2]; HepG2) was “not significantly changed” and the “phosphorylated status of ERK” value ([2]; HepG2) was “no distinct change”. The “phosphorylation level of p38” value ([2]; HepG2, 48 h) was “markedly increased”, the “levels of cleaved-caspase 3 and -PARP” value ([2]; HepG2, 48 h, dose-dependent) was “increased” and the “level of phosphorylated JNK” value ([2]; HepG2, dose-dependent) was “dramatically reduced”. The “levels of cyclin E1, CDK2 and CDK4” value ([2]; HepG2, dose-dependent) was “decreased”, the “inhibition rate of the tumor volume” value (Hep3B xenografts; 5 mg/kg i.p. every two days for two weeks) was “approximately 35.9%” and the “inhibition rate of the tumor volume” value (Hep3B xenografts; 10 mg/kg i.p. every two days for two weeks) was roughly 50.3%. For the same compound, the “tumor volume and tumor weight” value (Hep3B xenografts; [4]) was “markedly decreased”, the “Ki-67 labeling index (proliferation capacity of tumor)” value (Hep3B xenografts; immunohistochemistry, vs vehicle control) was “lower proliferation capacity” and the “histopathology of heart, liver, spleen, lungs and kidneys” value ([3]; 5 mg/kg and 10 mg/kg, H&E, vs vehicle control group) was “no obvious differences”. The “body weight of the mice” value [3, 4] was “did not affect the body weight”.
